From ChEMBL document CHEMBL1128242, “Polyiodinated triglyceride analogs as potential computed tomography imaging agents for the liver” (J Med Chem, 1995)

Legend:
Rattus norvegicus [1] = test: Distribution of radioactivity was determined in plasma at 30 min after intravenous administration of [125I]-labeled 2-oleoglycerol 1,3-Bis-[omega-(3-amino-2,4,6-triiodophenyl)alkanoates] in rats; type: ADME, organism-based; settings: in vivo, 0.5 h
Rattus norvegicus [2] = test: Polyacrylamide Gel Electrophoresis (PAGE) to determined the concentration of albumin(ALB) in rats after iv administration of [125I]-labeled 2-Oleolyl 1,3-disubstituted triglycerols was reported; type: ADME, organism-based; settings: in vivo
Rattus norvegicus [3] = test: Analysis of lipid-soluble radioactivity in plasma 0.5 hour after iv administration of [125I]-labeled 2-Oleoyl 1,3-disubstituted Triacylglycerols and represented as % CHCl3/CH3OH from rat; type: ADME, organism-based; settings: in vivo
Rattus norvegicus [4] = test: Distribution of radioactivity was determined in blood at 30 min after intravenous administration of [125I]-labeled 2-oleoglycerol 1,3-Bis-[omega-(3-amino-2,4,6-triiodophenyl)alkanoates] in rats; type: ADME, organism-based; settings: in vivo, 0.5 h
Rattus norvegicus [5] = test: Distribution of radioactivity was determined in lung at 24 hr after intravenous administration of [125I]-labeled 2-oleoglycerol 1,3-Bis-[omega-(3-amino-2,4,6-triiodophenyl)alkanoates] in rats; type: ADME, organism-based; settings: in vivo
Rattus norvegicus [6] = test: Distribution of radioactivity was determined in liver at 48 hr after intravenous administration of 1,3-Disubstituted Triacylglycerols in rats; type: ADME, organism-based; settings: in vivo
Rattus norvegicus [7] = test: Polyacrylamide Gel Electrophoresis (PAGE) to determined the concentration of stacking gel(SG) in rats after iv administration of [125I]-labeled 2-Oleolyl 1,3-disubstituted triglycerols was reported; type: ADME, organism-based; settings: in vivo
Rattus norvegicus [8] = test: Distribution of radioactivity was determined in heart at 3h after intravenous administration of [125I]-labeled 2-oleoglycerol 1,3-Bis-[omega-(3-amino-2,4,6-triiodophenyl)alkanoates] in rats; type: ADME, organism-based; settings: in vivo
Rattus norvegicus [9] = test: Distribution of radioactivity was determined in blood at 30 min after intravenous administration of 1,3-Disubstituted Triacylglycerols in rats; type: ADME, organism-based; settings: in vivo, 0.5 h
Rattus norvegicus [10] = test: Distribution of radioactivity was determined in thyroid at 24 hr after intravenous administration of [125I]-labeled 2-oleoglycerol 1,3-Bis-[omega-(3-amino-2,4,6-triiodophenyl)alkanoates] in rats; type: ADME, organism-based, Thyroid gland; settings: in vivo
Rattus norvegicus [11] = test: Analysis of lipid-soluble radioactivity in liver 24 hour after iv administration of [125I]-labeled 2-Oleoyl 1,3-disubstituted Triacylglycerols and represented as % CHCl3/CH3OH from rat; type: ADME, organism-based; settings: in vivo
Rattus norvegicus [12] = test: Distribution of radioactivity was determined in spleen at 3h after intravenous administration of 1,3-Disubstituted Triacylglycerols in rats; type: ADME, organism-based; settings: in vivo
Rattus norvegicus [13] = test: Polyacrylamide Gel Electrophoresis (PAGE) to determined the concentration of below albumin(BA) in rats after iv administration of [125I]-labeled 2-Oleolyl 1,3-disubstituted triglycerols was reported; type: ADME, organism-based; settings: in vivo
Rattus norvegicus [14] = test: Distribution of radioactivity was determined in thyroid at 30 min after intravenous administration of [125I]-labeled 2-oleoglycerol 1,3-Bis-[omega-(3-amino-2,4,6-triiodophenyl)alkanoates] in rats; type: ADME, organism-based, Thyroid gland; settings: in vivo, 0.5 h
Rattus norvegicus [15] = test: Polyacrylamide Gel Electrophoresis (PAGE) to determined the concentration of high density lipoprotein (HDL) in rats after iv administration of [125I]-labeled 2-Oleolyl 1,3-disubstituted triglycerols was reported; type: ADME, organism-based; settings: in vivo
Rattus norvegicus [16] = test: Distribution of radioactivity was determined in liver at 24 hr after intravenous administration of 1,3-Disubstituted Triacylglycerols in rats; type: ADME, organism-based; settings: in vivo
Rattus norvegicus [17] = test: Distribution of radioactivity was determined in kidney at 3h after intravenous administration of [125I]-labeled 2-oleoglycerol 1,3-Bis-[omega-(3-amino-2,4,6-triiodophenyl)alkanoates] in rats; type: ADME, organism-based; settings: in vivo
Rattus norvegicus [18] = test: Analysis of lipid-soluble radioactivity in liver 24 hour after iv administration of [125I]-labeled 2-Oleoyl 1,3-disubstituted Triacylglycerols expressed as %parent compound (by TLC with authentic [125I]-labeled standard) from rat; type: ADME, organism-based; settings: in vivo
Rattus norvegicus [19] = test: Distribution of radioactivity was determined in plasma at 24 hr after intravenous administration of [125I]-labeled 2-oleoglycerol 1,3-Bis-[omega-(3-amino-2,4,6-triiodophenyl)alkanoates] in rats; type: ADME, organism-based; set-up: unit not given here; settings: in vivo
Rattus norvegicus [20] = test: Analysis of lipid-soluble radioactivity in liver 0.5 hour after iv administration of [125I]-labeled 2-Oleoyl 1,3-disubstituted Triacylglycerols expressed as %parent compound (by TLC with authentic [125I]-labeled standard) from rat; type: ADME, organism-based; settings: in vivo
Rattus norvegicus [21] = test: Distribution of radioactivity was determined in blood at 24 hr after intravenous administration of 1,3-Disubstituted Triacylglycerols in rats; type: ADME, organism-based; settings: in vivo
Rattus norvegicus [22] = test: Distribution of radioactivity was determined in blood at 3h after intravenous administration of 1,3-Disubstituted Triacylglycerols in rats; type: ADME, organism-based; settings: in vivo
Rattus norvegicus [23] = test: Distribution of radioactivity was determined in kidney at 24 hr after intravenous administration of [125I]-labeled 2-oleoglycerol 1,3-Bis-[omega-(3-amino-2,4,6-triiodophenyl)alkanoates] in rats; type: ADME, organism-based; settings: in vivo
Rattus norvegicus [24] = test: Distribution of radioactivity was determined in blood at 48 hr after intravenous administration of 1,3-Disubstituted Triacylglycerols in rats; type: ADME, organism-based; settings: in vivo
Rattus norvegicus [25] = test: Distribution of radioactivity was determined in thyroid at 3h after intravenous administration of [125I]-labeled 2-oleoglycerol 1,3-Bis-[omega-(3-amino-2,4,6-triiodophenyl)alkanoates] in rats; type: ADME, organism-based, Thyroid gland; settings: in vivo
Rattus norvegicus [26] = test: Distribution of radioactivity was determined in liver at 24 hr after intravenous administration of [125I]-labeled 2-oleoglycerol 1,3-Bis-[omega-(3-amino-2,4,6-triiodophenyl)alkanoates] in rats; type: ADME, organism-based; settings: in vivo
Rattus norvegicus [27] = test: Distribution of radioactivity was determined in spleen at 48 hr after intravenous administration of 1,3-Disubstituted Triacylglycerols in rats; type: ADME, organism-based; settings: in vivo
Rattus norvegicus [28] = test: Distribution of radioactivity was determined in lung at 30 min after intravenous administration of [125I]-labeled 2-oleoglycerol 1,3-Bis-[omega-(3-amino-2,4,6-triiodophenyl)alkanoates] in rats; type: ADME, organism-based; settings: in vivo, 0.5 h
Rattus norvegicus [29] = test: Analysis of lipid-soluble radioactivity in plasma 0.5 hour after iv administration of [125I]-labeled 2-Oleoyl 1,3-disubstituted Triacylglycerols expressed as %parent compound (by TLC with authentic [125I]-labeled standard) from rat; type: ADME, organism-based; settings: in vivo
Rattus norvegicus [30] = test: Distribution of radioactivity was determined in blood at 3h after intravenous administration of [125I]-labeled 2-oleoglycerol 1,3-Bis-[omega-(3-amino-2,4,6-triiodophenyl)alkanoates] in rats; type: ADME, organism-based; settings: in vivo
Rattus norvegicus [31] = test: Analysis of lipid-soluble radioactivity in liver 0.5 hour after iv administration of [125I]-labeled 2-Oleoyl 1,3-disubstituted Triacylglycerols and represented as % CHCl3/CH3OH from rat; type: ADME, organism-based; settings: in vivo
Rattus norvegicus [32] = test: Distribution of radioactivity was determined in spleen at 3h after intravenous administration of [125I]-labeled 2-oleoglycerol 1,3-Bis-[omega-(3-amino-2,4,6-triiodophenyl)alkanoates] in rats; type: ADME, organism-based; settings: in vivo
Rattus norvegicus [33] = test: Distribution of radioactivity was determined in heart at 30 min after intravenous administration of [125I]-labeled 2-oleoglycerol 1,3-Bis-[omega-(3-amino-2,4,6-triiodophenyl)alkanoates] in rats; type: ADME, organism-based; settings: in vivo, 0.5 h
Rattus norvegicus [34] = test: Polyacrylamide Gel Electrophoresis (PAGE) to determined the concentration of low density lipoprotein (LDL) in rats after iv administration of [125I]-labeled 2-Oleolyl 1,3-disubstituted triglycerols was reported; type: ADME, organism-based; settings: in vivo

CCCCCCCC/C=C/CCCCCCCC(=O)OC(COC(=O)CCCCCc1c(I)cc(I)c(N)c1I)COC(=O)CCCCCc1c(I)cc(I)c(N)c1I gave a Distribution of radioactivity (Rattus norvegicus [1]) of 0.65 % dose/g, a Radioactivity (Rattus norvegicus [2]) of 15% and a Lipid-soluble radioactivity (Rattus norvegicus [3]) of 89.9. The Distribution of radioactivity (Rattus norvegicus [4]) was 0.38 % dose/g, the Distribution of radioactivity (Rattus norvegicus [5]) was 0.26 % dose/g and the Distribution of radioactivity (Rattus norvegicus [6]) was 22.4 % dose/organ. The Radioactivity (Rattus norvegicus [7]) was 72.6%, the Distribution of radioactivity (Rattus norvegicus [8]) was 0.2 % dose/g and the Distribution of radioactivity (Rattus norvegicus [9]) was 4.8 % dose/organ. For the same molecule, the Distribution of radioactivity (Rattus norvegicus [10]) was 5.13 % dose/g, the Lipid-soluble radioactivity (Rattus norvegicus [11]) was 90.3 and the Distribution of radioactivity (Rattus norvegicus [12]) was 11.3 % dose/organ. The Radioactivity (Rattus norvegicus [13]) was 0.6%, the Distribution of radioactivity (Rattus norvegicus [14]) was 0.54 % dose/g and the Radioactivity (Rattus norvegicus [15]) was 7%. The Distribution of radioactivity (Rattus norvegicus [16]) was 34.9 % dose/organ, the Distribution of radioactivity (Rattus norvegicus [17]) was 0.21 % dose/g and the Lipid-soluble radioactivity (Rattus norvegicus [18]) was 97.9. For the same molecule, the Distribution of radioactivity (Rattus norvegicus [19]) was 0.14, the Lipid-soluble radioactivity (Rattus norvegicus [20]) was 96.8 and the Distribution of radioactivity (Rattus norvegicus [21]) was 1.1 % dose/organ. It also gave a Distribution of radioactivity (Rattus norvegicus [22]) of 2.2 % dose/organ, a Distribution of radioactivity (Rattus norvegicus [23]) of 0.25 % dose/g and a Distribution of radioactivity (Rattus norvegicus [24]) of 0.8 % dose per organ. For the same molecule, the Distribution of radioactivity (Rattus norvegicus [25]) was 0.91 % dose/g, the Distribution of radioactivity (Rattus norvegicus [26]) was 4.2 % dose/g and the Distribution of radioactivity (Rattus norvegicus [27]) was 3.1 % dose per organ. The Distribution of radioactivity (Rattus norvegicus [28]) was 0.26 % dose/g, the Lipid-soluble radioactivity (Rattus norvegicus [29]) was 82.2 and the Distribution of radioactivity (Rattus norvegicus [30]) was 0.2 % dose/g. The Lipid-soluble radioactivity (Rattus norvegicus [31]) was 91.3, the Distribution of radioactivity (Rattus norvegicus [32]) was 23.5 % dose/g and the Distribution of radioactivity (Rattus norvegicus [33]) was 0.23 % dose/g. It also gave a Radioactivity (Rattus norvegicus [34]) of 4.8%.
